Entries after “also recorded” stand apart in the source; their conditions may differ. Where two headings read alike, the source gives them in different places.
Assays:
FOXO3 = FOXO3 siRNA knockdown: dependency for H2O2-resistance; format: cell-based, human; conditions: for FOXO3-dependency for H2O2-resistance (experiment 3): with & without H2O2, FOXO3 knockdown in WI-38 cells
Description: For qPCR analysis, WI-38 cells were treated with small molecules (at 10 μM) (biological quadruplicates) for 24 hrs and processed for RNA isolation and reverse transcription (RT) with the Cells-to-Ct Kit (Life Technologies), following manufacturer's instructions. RT products were diluted with H2O and used for qPCR analysis on an ABI 7300 system (Life Technologies) (technical triplicates). Relative expression levels of target genes were normalized to the genes B2M, PPIA and GAPDH. To knock down the expression of FOXO3 or NRF2, WI-38 cells were transfected, using the RNAiMAX reagents (Life Technologies), with siRNA oligos (at 10 nM final concentration, 10 ml culture medium) for FOXO3 (Life Technologies) or NRF2 (Integrated DNA Technologies) on 10-cm petri dishes for 36 hrs, and then detached and aliquoted onto 96-well (for qPCR analysis) or 384-well plates (for H2O2-stress treatment). ˜24 hrs later, small molecules were introduced and incubated with cells for 24 hrs. Cells were then either processed with the Cells-to-Ct Kit to prepare RT products for qPCR analysis or subjected to H2O2 (700 μM) for 3 hrs and assayed for viability. The knockdown efficiency of FOXO3 or NRF2 was checked at 36 hrs post-transfection and at the end as well. […]
Applicants used siRNA to knock down FOXO3 expression by ˜70% in an attempt to identify whether the activation of these genes depends on activity of FOXO3 and/or NRF2. […] We used siRNA to knock down FOXO3 expression by ˜60% to 70% (FIG. 3; see data in Table 6). […] (Given the caveat that FOXO3 was not fully knocked down, partial dependency was scored when the H2O2-resistance capacity was reduced by at least 25% but less than 50% upon siRNA knockdown). At least for Gr-7A and Gr-7C, which are structurally related, the observed FOXO3-dependency for H2O2-resistance is consistent with their strong effects to induce FOXO3 target genes (Tables 1a-1f, Table 6, & Table 15), including SOD2 and GADD45A.

mTOR = mTOR inhibition (RPS6 phosphorylation status), In-Cell Western; format: cell-based, human
In short: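 WI-38 cells exposed to compounds at 5, 10 and 20 μM for 24 hrs. Fixed cells co-stained overnight at 4° C with anti-RPS and anti-pRPS6 (Ser-235/236) antibodies, then DyLight 680/800 secondaries. Phospho-RPS6 relative to total RPS6 read by near-infrared In-Cell Western imaging.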

[1] = test system: phosphorylated γH2A.X and TP53BP1; assay: DNA damage marker analysis (immuno-staining); conditions: for activity at 10 µM: Homo sapiens, WI-38, 24 h
In short: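 WI-38 cells were cultured 24 h, then treated with compounds for 24 h; H2O2 (700 μM, 3 h) and doxorubicin (300 nM, 24 h) served as DNA-damage controls. After fixation, cells were immunostained for phospho-γH2A.X (Ser-139) and phospho-TP53BP1 (Ser-1778), counterstained with DAPI, and imaged by automated high-content microscopy.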

WI-38 cells = conditions: for No H2O2 stress treatment, at 10 uM (fold change): normalized ATP measurement; for Assay 1: H2O2-resistant: YES/NO, if NO, possibly due to repeated freezing/thawing of stocks
[2] = read-out: Experiment 1, H2A.X-P DNA damage foci staining (no H2O2 stress treatment), at 10 uM
[3] = read-out: Experiment 2, H2A.X-P DNA damage foci staining (no H2O2 stress treatment), at 10 uM
[4] = read-out: Experiment 2, H2A.X-P DNA damage foci staining (under H2O2 stress treatment), at 10 uM
[5] = read-out: Experiment 2, TP53BP1-P DNA damage foci staining (no H2O2 stress treatment), at 10 uM
[6] = read-out: Experiment 2, TP53BP1-P DNA damage foci staining (under H2O2 stress treatment), at 10 uM
[7] = negative point, cultured human cells
[8] = WI-38 cells, 10 μM, (*) = compromised ability to protect cells from H2O2, could be due to stability issue
[9] = asterisks indicate the loss of the ability to protect cells from H2O2 over time
[10] = derived from dose response curves, 0.6-20 uM, H2O2-resistance of WI-38 cells
[11] = read-out: Est. ED50, dose response 0.6-20 μM, H2O2-resistance
[12] = 10 uM, YES = resistance reduced by at least 50%, partial = 25% to 50%
[13] = 10 uM, with H2O2, FOXO3 knockdown in WI-38 cells, YES = resistance reduced by at least 50%, partial = 25% to 50%

| Compound | I = FOXO3-dependency for H2O2-resistance (FOXO3; score) | I = FOXO3-dependency for H2O2-resistance (FOXO3; summary score) | G = mTOR down-regulation (mTOR; 2-point score) | G = mTOR down-regulation (mTOR; summary score) | activity at 10 µM [1, 2] [%] | activity at 10 µM [1, 3] [%] | activity at 10 µM [1, 4] [%] | activity at 10 µM [1, 5] [%] | activity at 10 µM [1, 6] [%] | H2O2-resistant (WI-38 cells; [8]) | No H2O2 stress treatment, at 10 uM (fold change) (WI-38 cells; WI-38 cells) | Assay 1: H2O2-resistant (WI-38 cells) | H2O2-resistant (WI-38 cells; [9]) | EC50 (WI-38 cells; [10]) [µM] | EC50 (WI-38 cells; [11]) [µM] | P = Potential DNA-damaging ([1]; human, 24 h) | R = Potential DNA damaging ([1]; human, 24 h) | also measured |
| --- | --- | --- | --- | --- | --- | --- | --- | --- | --- | --- | --- | --- | --- | --- | --- | --- | --- | --- |
| COc1ccc(C(=O)/C=C/c2ccc(F)cc2)c(OC)c1 [Gr-4A] | 0 | 0 | 0 | 0 | 80.2 | 75 | 105 | 155 | 287 | YES | 1.08 | YES | YES | 9.1 | 4.97 | – | – | R = Potential DNA damaging [1, 7]: 0; P = Potential DNA-damaging ([1]; summary score): 0 |
| CNC(=O)/C(C#N)=C/c1c(Oc2ccc(C(C)(C)C)cc2)nc2ccccn2c1=O [Gr-5D] | 0 | 0 | 0 | 0 | 94.1 | 75 | 112 | 145 | 480 | YES (*) | 1.14 | YES | YES (*) | – | 18.7 | 0 | 0 | – |
| [O-][n+]1onc2c3nsnc3c(Br)cc21 [O17] | 0 | 0 | 0 | 0 | 96.7 | 72.1 | 129 | 148 | 349 | YES | 1.06 | – | YES | 8.5 | 8.5 | 0 | 0 | – |
| Cc1cc(C)c(C(=O)/C=C/c2ccccc2F)c(O)n1 [O18] | 0 | 0 | 0 | 0 | 364 | 143 | 137 | 183 | 450 | YES | 0.99 | YES | YES | 9.8 | 9.8 | 0 | 0 | FOXO3-dependency for H2O2-resistance, at 10 uM (experiment 3) - with & without H2O2 (FOXO3; 10 uM): YES; FOXO3-dependency for H2O2-resistance (experiment 3) (FOXO3; [12]): YES |
| COc1ccc(C(=O)/C=C/c2ccccc2Br)c(OC)c1 [Gr-4B] | 0 | 0 | 0 | 0 | 116 | 140 | 150 | 118 | 435 | YES | 1.18 | YES | YES | 8.9 | 5.33 | – | – | R = Potential DNA damaging [1, 7]: 0; P = Potential DNA-damaging ([1]; summary score): 0 |
| CCCC(=O)Nc1ccc(-c2cn3cccc(C)c3n2)cc1 [O12] | 0 | 0 | 0 | 0 | 106 | 88 | 113 | 142 | 523 | YES | 1.01 | – | YES | 1 | 1 | 0 | 0 | – |
| CC(C)(C)c1ccc(OCC(=O)Nc2ccc3c4c(cccc24)C(=O)NC3=O)cc1 [O22] | 0 | 0 | 0 | 0 | 101 | 121 | 210 | 154 | 510 | YES | 0.96 | YES | YES | – | 20 | 0 | 0 | – |
| O=C(NCc1cccnc1)/C(=C\c1cccc(Oc2ccccc2)c1)S(=O)(=O)c1ccccc1 [Gr-7A] | 1 | 1 | 2 | 2 | 337 | 246 | 113 | 363 | 516 | YES (*) | 0.78 | YES | YES (*) | 16.1 | 58.4 | 0 | 0 | FOXO3-dependency for H2O2-resistance, at 10 uM - with H2O2, 1st experiment (FOXO3; 10 uM, experiment 1 (1st), with H2O2): 1st, partial;; FOXO3-dependency for H2O2-resistance, at 10 uM - with H2O2, 2nd experiment (FOXO3; 10 uM, experiment 2 (2nd), with H2O2): 2nd, YES.; FOXO3-dependency for H2O2-resistance, at 10 uM (experiment 3) - with & without H2O2 (FOXO3; 10 uM): YES; FOXO3-dependency for H2O2-resistance (experiment 3) (FOXO3; [12]): YES; FOXO3-dependency for H2O2-resistance, 1st experiment (FOXO3; [13]): partial;; FOXO3-dependency for H2O2-resistance, 2nd experiment (FOXO3; [13]): YES.; Assay 16: FOXO3-dependency for H2O2-resistance (FOXO3; 10 uM, YES/NO): YES; Requirement of FOXO3 to promote H2O2-resistance (FOXO3; FOXO3 siRNA, at least 2 of 3 independent experiments): required FOXO3; mTOR down-regulation by p-RPS6 assays (mTOR; Assay 14(q), at 5 uM, 10 uM & 20 uM): YES; Exp. 1, normalized reduction in p-RPS6/RPS6 ratio (mTOR; Exp. 1, In-Cell Western, n=4): ~61% (−), at 20 μM; Exp. 1, normalized reduction in p-RPS6/RPS6 ratio (mTOR; Exp. 1, at 10 μM, In-Cell Western, n=4): ~60% (−), at 10 μM;; Exp. 2, normalized reduction in p-RPS6/RPS6 ratio (mTOR; Exp. 2, at 10 μM, In-Cell Western, n=4): ~75% (−), at 10 μM; Exp. 3, normalized reduction in p-RPS6/RPS6 ratio (mTOR; Exp. 3, In-Cell Western, n=4): ~92% (−), at 20 μM; Exp. 3, normalized reduction in p-RPS6/RPS6 ratio (mTOR; Exp. 3, at 5 μM, In-Cell Western, n=4): ~50% (−), at 5 μM;; Exp. 3, normalized reduction in p-RPS6/RPS6 ratio (mTOR; Exp. 3, at 10 μM, In-Cell Western, n=4): ~89% (−), at 10 μM;; mTOR inhibition (p-RPS6/RPS6), qualitative (mTOR; In-Cell Western): mTOR-inhibiting activities; also recorded: consistently reduced the ratios |

Source: patent US11413278B2, “Compounds and methods for promoting stress resistance” (priority 2015, dated 2022)
